# Measured values: patent US20230242585A1, “IMMUNOMODULATORS” (Bristol-Myers Squibb Company, priority 2020, published 2023)
# Starred links: 1 amine or outer side, 2 acyl side, 3 side chain; linkers in the order of their positions; H or OH if unused. Positions of bridges follow the written chain, without caps; N, C: chain ends. Non-standard residues stand in square brackets, D forms with d. Residues, ends and D or L forms follow the SMILES beside them. X49 = O=C([C@H](CNC[C@@H](O)[C@H](O)[C@@H](O)[C@@H](O)[C@H](O)CO)N[*:1])[*:2]; X40 = O=C([C@H](CNC1[C@@H](O)[C@@H](O)[C@@H](O)[C@H](O)[C@H]1O)N[*:1])[*:2]; X51 = O=C([C@H](CCNC[C@@H](O)[C@@H](O)[C@H](O)[C@H](O)C(O)CO)N[*:1])[*:2]; X50 = O=C([C@H](CNC[C@@H](O)[C@@H](O)[C@H](O)[C@H](O)C(O)CO)N[*:1])[*:2]; X62 = O=C([C@H](CCNC[C@H](O)[C@H](O)[C@@H](O)[C@@H](O)CO)N[*:1])[*:2]; X35 = O=C([C@H](CNC[C@H](O)[C@H](O)[C@@H](O)[C@@H](O)CO)N[*:1])[*:2]; X8 = O=C([C@H](CNC[C@@H](O)[C@@H](O)[C@@H](O)[C@H](O)CO)N[*:1])[*:2]; Trp(1-CH2COOH) = N[C@@H](Cc1cn(CC(=O)O)c2ccccc12)C(=O)O; Hyp = O=C(O)[C@@H]1C[C@@H](O)CN1; NMeNle = CCCC[C@H](NC)C(=O)O; NMeA = CN[C@@H](C)C(=O)O; Dab = NCC[C@H](N)C(=O)O
# Biological target: T1, PD-1/PD-L1 (Homo sapiens, UniProt Q9NZQ7)
# T1 construct: TVMV protease site (linker) (C); made in house; host or cells: HEK293T cells
# T1 sequence (Q9NZQ7 18-239): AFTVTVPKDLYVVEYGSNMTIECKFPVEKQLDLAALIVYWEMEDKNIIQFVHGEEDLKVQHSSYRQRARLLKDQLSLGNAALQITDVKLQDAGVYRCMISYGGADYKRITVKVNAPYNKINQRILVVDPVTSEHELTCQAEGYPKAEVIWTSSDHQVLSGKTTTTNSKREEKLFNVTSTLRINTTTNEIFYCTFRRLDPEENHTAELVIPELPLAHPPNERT
# Test: PD-1/PD-L1 Homogenous Time-Resolved Fluorescence (HTRF) binding assay
# Conditions: PD-L1-His 10 nM, PD-1-Ig 20 nM
# How it was run: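 Compounds preincubated 15 min with PD-L1-His (residues 18-239, 10 nM) in dPBS with 0.1% BSA, 0.05% Tween-20, then PD-1-Ig (residues 25-167, 20 nM) for 15 min. Eu-cryptate anti-Ig (1 nM) and APC anti-His (20 nM) equilibrated 30 min; 665/620 nm ratio read, IC50 derived.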
row,Structure (SMILES),IC50 [nM]
1,CCCC[C@H]1C(=O)N(C)[C@@H](CCCC)C(=O)N[C@@H](CC(C)C)C(=O)N[C@H](C(=O)NCC(N)=O)CSCC(=O)N[C@@H](Cc2ccc(O)cc2)C(=O)N(C)[C@@H](C)C(=O)N[C@@H](CC(N)=O)C(=O)N2CCC[C@H]2C(=O)N[C@@H](CNC2[C@@H](O)[C@@H](O)[C@@H](O)[C@H](O)[C@H]2O)C(=O)N[C@@H](CC(C)C)C(=O)N2C[C@H](O)C[C@H]2C(=O)N[C@@H](Cc2c[nH]c3ccccc23)C(=O)N[C@@H](CCN)C(=O)N[C@@H](Cc2cn(CC(=O)O)c3ccccc23)C(=O)N1C (some centres unmarked) [Example 2020] ({CH2CO}-Y[NMeA]NP[X40]L[Hyp]W[Dab][Trp(1-CH2COOH)][NMeNle][NMeNle]LCG-NH2; thioether N-14),5
2,CCCC[C@H]1C(=O)N(C)[C@@H](CCCC)C(=O)N[C@@H](CC(C)C)C(=O)N[C@H](C(=O)NCC(N)=O)CSCC(=O)N[C@@H](Cc2ccc(O)cc2)C(=O)N(C)[C@@H](C)C(=O)N[C@@H](CC(N)=O)C(=O)N2CCC[C@H]2C(=O)N[C@@H](CNC[C@@H](O)[C@@H](O)[C@@H](O)[C@H](O)CO)C(=O)N[C@@H](CC(C)C)C(=O)N2C[C@H](O)C[C@H]2C(=O)N[C@@H](Cc2c[nH]c3ccccc23)C(=O)N[C@@H](CCN)C(=O)N[C@@H](Cc2cn(CC(=O)O)c3ccccc23)C(=O)N1C [Example 2022] ({CH2CO}-Y[NMeA]NP[X8]L[Hyp]W[Dab][Trp(1-CH2COOH)][NMeNle][NMeNle]LCG-NH2; thioether N-14),8.6

# More lines, now with the values ahead:
row,IC50 [nM],Structure (SMILES)
1,8.1,CCCC[C@H]1C(=O)N(C)[C@@H](CCCC)C(=O)N[C@@H](CC(C)C)C(=O)N[C@H](C(=O)NCC(N)=O)CSCC(=O)N[C@@H](Cc2ccc(O)cc2)C(=O)N(C)[C@@H](C)C(=O)N[C@@H](CC(N)=O)C(=O)N2CCC[C@H]2C(=O)N[C@@H](CNC[C@@H](O)[C@H](O)[C@@H](O)[C@@H](O)[C@H](O)CO)C(=O)N[C@@H](CC(C)C)C(=O)N2C[C@H](O)C[C@H]2C(=O)N[C@@H](Cc2c[nH]c3ccccc23)C(=O)N[C@@H](CCN)C(=O)N[C@@H](Cc2cn(CC(=O)O)c3ccccc23)C(=O)N1C [Example 2019] ({CH2CO}-Y[NMeA]NP[X49]L[Hyp]W[Dab][Trp(1-CH2COOH)][NMeNle][NMeNle]LCG-NH2; thioether N-14)
2,8.9,CCCC[C@H]1C(=O)N(C)[C@@H](CCCC)C(=O)N[C@@H](CC(C)C)C(=O)N[C@H](C(=O)NCC(N)=O)CSCC(=O)N[C@@H](Cc2ccc(O)cc2)C(=O)N(C)[C@@H](C)C(=O)N[C@@H](CC(N)=O)C(=O)N2CCC[C@H]2C(=O)N[C@@H](CNC[C@@H](O)[C@@H](O)[C@H](O)[C@H](O)C(O)CO)C(=O)N[C@@H](CC(C)C)C(=O)N2C[C@H](O)C[C@H]2C(=O)N[C@@H](Cc2c[nH]c3ccccc23)C(=O)N[C@@H](CCNC[C@@H](O)[C@@H](O)[C@H](O)[C@H](O)C(O)CO)C(=O)N[C@@H](Cc2cn(CC(=O)O)c3ccccc23)C(=O)N1C (some centres unmarked) [Example 2021] ({CH2CO}-Y[NMeA]NP[X50]L[Hyp]W[X51][Trp(1-CH2COOH)][NMeNle][NMeNle]LCG-NH2; thioether N-14)
3,6.1,CCCC[C@H]1C(=O)N(C)[C@@H](CCCC)C(=O)N[C@@H](CC(C)C)C(=O)N[C@H](C(=O)NCC(N)=O)CSCC(=O)N[C@@H](Cc2ccc(O)cc2)C(=O)N(C)[C@@H](C)C(=O)N[C@@H](CC(N)=O)C(=O)N2CCC[C@H]2C(=O)N[C@@H](CNC[C@H](O)[C@H](O)[C@@H](O)[C@@H](O)CO)C(=O)N[C@@H](CC(C)C)C(=O)N2C[C@H](O)C[C@H]2C(=O)N[C@@H](Cc2c[nH]c3ccccc23)C(=O)N[C@@H](CCNC[C@H](O)[C@H](O)[C@@H](O)[C@@H](O)CO)C(=O)N[C@@H](Cc2cn(CC(=O)O)c3ccccc23)C(=O)N1C [Example 2023] ({CH2CO}-Y[NMeA]NP[X35]L[Hyp]W[X62][Trp(1-CH2COOH)][NMeNle][NMeNle]LCG-NH2; thioether N-14)
